Reference: patent EP0470323A2, “New salts of the nicotinic acid with aminobenzylic compounds and their pharmaceutical use” (BROMLEY LIMITED, priority 1990, dated 1992)

Assays:
Schiosaccharomyces Pombe = assay: Mutagenic action of urines of intragastrically treated rats on yeast; format: cell-based; settings: urines of rats treated intragastrically with two doses, with metabolic activation, beta-glucoronidase absent
HeLa cells (DnA-repair) = assay: Mutagenic action of urines of intragastrically treated rats on HeLa cells (DNA repair); format: cell-based, human; settings: urines of rats treated intragastrically with two doses, with metabolic activation, beta-glucoronidase absent
[1] = tested on: Central artery of a rabbit's ear; assay: In vitro antispastic action, adrenalin-induced spasm of the perfused isolated artery; settings: spasm induced by Adrenalin, n=4, listed as Compound accord.Ex.1
Experimental: An "in vitro" method has been used, according to which the withdrawal of the central artery of a rabbit's ear with the relevant nervous connections and the equipment of an appropriate seat for secluded organs was designed (Fleckenstein A., British Journal of Pharmacology 7, 533, 1952).
On the artery they did install a three-ways tube, connected with a peristaltic pump and with a mercury manometer to record the perfusion pressure. The artery was perfused with a rebs liquid at the speed of 2,5 ml/minute. The contractions were induced by injecting into the vessel 0,1 ml adrenalin at the concentration of 1 mcg/ml. The compound according to the example 1 has been added to the bath at concentrations of 0,5 - 1 - 2 uM, five minutes before the adrenalin (four preparations per concentration). As comparison drugs, chlorhydra ted Buflomedil and Papaverin have been used. The activity of the material under investigation has been appreciated in terms of percentages referring to the concentration induced by the Adrenalin (and expressed with DE₅₀) and the relevant forbidding.

[2] = tested on: HeLa human cells cultures; assay: DNA repair synthesis (tritiated thymidine incorporation) in HeLa cell cultures; format: cell-based; settings: vs controls treated with solvent, dosages tested
From the text: The compound according to the Example 1 has been tested, in order to check and see its mutagenic effects.

[3] = tested on: Hypertriglyceridaemia caused by ethanole in the rats; assay: Hypertriglyceridaemia caused by ethanol in rats, duration of the effects; format: in vivo; settings: rat, dose 1 mM/kg/os
From the text: For this test group the methods described by Sistori C.R. and colleagues (Atherosclerosis 30, 45; 1978) is followed.
The hypertriglyceridaemia has been induced into the male rats having a body weight of 160 - 170 g by giving them to drink, for 4 consecutive days, a solution of 10% ethanole in water.
In order to perform the particular kinetics of the compound in accordance with the example 1 following the instant invention, it was considered appropriate, anyway, to evaluate the duration of the hypolipaemizing effect in comparison to that of the nicotinic acid.
A group of normal animals was treated with the vehicle only and did serve as a negative control group.

Structure (SMILES): COc1cc(OC)c(C(=O)CCCN2CCCC2)c(OC)c1 [Example 1, 4-(1 pyrrholydinyl)-1-(2,4,6 trimethoxypheniyl)-1-nicotinized butanone]
- mutagenic action (Schiosaccharomyces Pombe): any mutagenic action did not result
- mutagenic action (HeLa cells (DnA-repair)): any mutagenic action did not result
- % inhibi-tions of the con-tractions ([1]; concentration 0,5 μ M): 45%
- % inhibi-tions of the con-tractions ([1]; concentration 1,0 μ M): 70%
- % inhibi-tions of the con-tractions ([1]; concentration 2,0 μ M): 94%
- EC50 ([1]; read-out: DE50 (the source's name)): 580 nM
- quantity of tritium-added Thymidine included into the DNA of the cells (repair synthese) [2]: did not determine any variation
- % variation vs positive controls (Trigliceridi) ([3]; 4 h): -38,2%
- Trigliceridi ([3]; 4 h from the last treatment): 158,9 ± 11,6 mg/100 ml
- % variation vs positive controls (Trigliceridi) ([3]; 6 h): -42,6%
- Trigliceridi ([3]; 6 h from the last treatment): 135,6 ± 10,9 mg/100 ml
- % variation vs positive controls (Trigliceridi) ([3]; 12 h): -31,5%
- Trigliceridi ([3]; 12 h from the last treatment): 141,0 ± 21,1 mg/100 ml
- % variation vs positive controls (Trigliceridi) ([3]; 16 h): -22,1%
- Trigliceridi ([3]; 16 h from the last treatment): 145,3 ± 12,7 mg/100 ml
- % variation vs positive controls (Trigliceridi) ([3]; 24 h): -9,2%
- Trigliceridi ([3]; 24 h from the last treatment): 150,1 ± 8,4 mg/100 ml
